From US7723358B2, “Aroyl-O-piperidine derivatives for the treatment of diabetes-related problems” (Merck Patent GmbH, priority 2004, dated 2010)

Molecular target: T1, microsomal triglyceride transfer protein (MTP) (Mesocricetus auratus, UniProt P55158)
T1 construct: The supernatant comprising the soluble MTP is dialysed against Tris/HCl 150 mM; from tissue; host or cells: golden hamster liver microsomes, deoxycholate-solubilised supernatant, dialysed
T1 sequence (P55158 19-895): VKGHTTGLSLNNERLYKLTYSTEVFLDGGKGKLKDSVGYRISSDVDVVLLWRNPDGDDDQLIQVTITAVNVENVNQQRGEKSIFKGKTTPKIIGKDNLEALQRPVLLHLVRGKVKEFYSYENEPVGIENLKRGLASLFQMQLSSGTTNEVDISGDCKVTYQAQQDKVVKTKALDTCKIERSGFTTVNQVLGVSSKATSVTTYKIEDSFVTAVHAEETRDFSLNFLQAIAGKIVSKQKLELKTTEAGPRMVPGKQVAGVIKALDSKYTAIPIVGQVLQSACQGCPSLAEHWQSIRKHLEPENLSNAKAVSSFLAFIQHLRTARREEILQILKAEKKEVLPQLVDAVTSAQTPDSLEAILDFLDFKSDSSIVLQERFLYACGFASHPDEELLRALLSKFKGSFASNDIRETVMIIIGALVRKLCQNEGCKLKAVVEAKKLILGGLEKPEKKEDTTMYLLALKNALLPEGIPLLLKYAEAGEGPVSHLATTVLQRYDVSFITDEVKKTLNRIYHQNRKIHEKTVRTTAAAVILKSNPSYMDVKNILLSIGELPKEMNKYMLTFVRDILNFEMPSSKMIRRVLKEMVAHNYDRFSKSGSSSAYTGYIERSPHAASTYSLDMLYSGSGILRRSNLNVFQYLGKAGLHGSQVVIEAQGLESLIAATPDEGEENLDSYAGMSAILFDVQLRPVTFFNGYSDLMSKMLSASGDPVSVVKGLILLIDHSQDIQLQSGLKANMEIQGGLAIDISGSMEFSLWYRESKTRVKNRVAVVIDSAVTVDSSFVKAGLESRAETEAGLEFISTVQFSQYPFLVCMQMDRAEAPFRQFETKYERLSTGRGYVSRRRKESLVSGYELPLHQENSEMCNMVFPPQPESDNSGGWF
Assay: Inhibition of MTP activity: transfer of [3H]-triolein from donor liposomes to biotinylated LDL, SPA
Assay type: biochemical
Conditions: MTP from golden hamster liver; incubation 18-24 hours at 37° C.; read-out: IC50, concentration that allows a 50% inhibition of MTP
Experimental: Analysis of the Inhibition of MTP Activity
The inhibition of the activity of microsomal triglyceride transfer protein (MTP) was tested by using the following operating protocol.
The inhibition of MTP activity with a compound can be quantified by observing the inhibition of the transfer of a labelled triglyceride, from a donor particle to an acceptor particle, in the presence of MTP. The procedure for the preparation of MTP is based on the method by Wetterau and Zilversmit (Biochem. Biophys. Acta (1986) 875, 610). A few grams of golden hamster liver are taken and then rinsed several times in a 250 mM sucrose solution at 0° C. All the following steps proceed at +4° C. A homogenate at a concentration of 50% in 250 mM sucrose is prepared using a Teflon mill and then centrifuged for 10 minutes at 10 000×g at +4° C. The supernatant is then centrifuged at 105 000×g for 75 minutes at +4° C. The supernatant is discarded and the microsomal pellet is taken up in 3 ml (per g of starting liver) of Tris/HCl 150 mM pH 8.0. 1-ml aliquot fractions are stored at −80° C. until the time of use.
After thawing a fraction of microsomes (1 ml), 12 ml of refrigerated Tris/HCl 50 mM, KCl 50 mM, MgCl2 5 mM pH 7.4 buffers and 1.2 ml of deoxycholate (0.54% in water) are added. After incubation for 30 minutes at +4° C. with gentle agitation, the suspension is centrifuged at 105 000×g for 75 minutes. The supernatant comprising the soluble MTP is dialysed against Tris/HCl 150 mM, NaCl 40 mM, EDTA 1 mM, 0.02% sodium azide pH 7.4 buffer (5 times one litre over 2-3 days). The MTP is stored at +4° C., is stable for at least 30 days and is used in unmodified form in the test.
The donor particles (liposomes) are prepared from 208 μl of L-phosphatidylcholine at a concentration of 10 mg/ml in chloroform, and 480 μl of [3H]-triolein at a concentration of 0.5 mCi/ml in toluene. After stirring, the solution is evaporated under nitrogen, taken up in 6 ml of Tris/HCl 50 mM, KCl 50 mM, MgCl2 5 mM pH 7.4 buffer and incubated in an ultrasound bath for 30 minutes at room temperature. The liposomes are stored at +4° C. and sonicated again for 10 minutes before each use.
The acceptor particles are biotinylated low density lipoproteins (LDL-biot). These particles are supplied by the company Amersham.
The reaction mixture is prepared in untreated ½ well white plates (Corning Costar) by addition, in the following order, of: 5 μl of HEPES 50 mM, NaCl 150 mM, BSA 0.1% (w/v), 0.05% sodium azide (w/v), pH 7.4 buffer; 5 μl of liposome; 5 μl of LDL-biot; 5 μl of test products in DMSO; 5 μl of MTP. After incubation for 18-24 hours at 37° C., the reaction is stopped by adding 100 μl of Amersham SPA (Scintillation Proximity Assay) beads coupled to streptavidin, and the radioactivity is counted using a Top Count (Packard) machine at least one hour later. The inhibition of the transfer of the triglycerides with a compound is reflected by a reduction in the transferred radioactivity.
The results are expressed in terms of the IC50, i.e. the concentration that allows a 50% inhibition of MTP.

Row | IC50 | Structure (SMILES)
1 | 119 nM | Cc1ccccc1NC(=O)N1CCC(Oc2cccc(NC(=O)c3cccc(C)c3-c3ccc(OC(F)(F)F)cc3)c2)CC1 [Example 62, N-(2-methylphenyl)-4-[3-[[[6-methyl-4′-(trifluoromethoxy)[1,1′-biphenyl]-2-yl]-carbonyl]amino]phenoxy]-1-piperidine-carboxamide]
2 | 367 nM | Cc1cccc(C(=O)Nc2cccc(OC3CCN(C(=O)Nc4ccc(F)cc4)CC3)c2)c1-c1ccc(OC(F)(F)F)cc1 [Example 25, N-(4-fluorophenyl)-4-[3-[[[6-methyl-4′-(trifluoromethoxy)[1,1′-biphenyl]-2-yl]-carbonyl]amino]phenoxy]-1-piperidine-carboxamide]
3 | 296 nM | COC(=O)CCC(=O)N1CCC(Oc2cccc(NC(=O)c3ccccc3-c3ccc(OC(F)(F)F)cc3)c2)CC1 [Example 133, methyl γ-oxo-4-[3-[[[4′-(trifluoromethoxy)-[1,1′-biphenyl]-2-yl]carbonyl]amino]-phenoxy]-1-piperidinebutanoate]
4 | 294 nM | COc1ccc(C(=O)N2CCC(Oc3cccc(NC(=O)c4ccccc4-c4ccc(OC(F)(F)F)cc4)c3)CC2)cc1OC [Example 104]
5 | 111 nM | Cc1cccc(C(=O)Nc2cccc(OC3CCN(C(=O)Nc4ccc(N(C)C)cc4)CC3)c2)c1-c1ccc(OC(F)(F)F)cc1 [Example 51, N-[4-(dimethylamino)phenyl]-4-[3-[[[6-methyl-4′-(trifluoromethoxy)[1,1′-biphenyl]-2-yl]carbonyl]amino]phenoxy]-1-piperidinecarboxamide]
6 | 779 nM | CCOC(=O)CCCCCNC(=O)N1CCC(Oc2cccc(NC(=O)c3cccc(C)c3-c3ccc(OC(F)(F)F)cc3)c2)CC1 [Example 45, ethyl 6-[[[4-[3-[[[6-methyl-4′-(trifluorometh-oxy)[1,1′-biphenyl]-2-yl]carbonyl]amino]-phenoxy]-1-piperidinyl]carbonyl]amino]-hexanoate]
7 | 392 nM | COCCOc1ccc(-c2ccccc2C(=O)Nc2cccc(OC3CCN(C(=O)OC(C)(C)C)CC3)c2)cc1 [Example 90, 1,1-dimethylethyl 4-[3-[[[4′-(2-methoxy-ethoxy)[1,1-biphenyl]-2-yl]carbonyl]-amino]phenoxy]-1-piperidinecarboxylate]
8 | 114 nM | CCCCNC(=O)N1CCC(Oc2cccc(NC(=O)c3cccc(C)c3-c3ccc(OC(F)(F)F)cc3)c2)CC1 [Example 33, N-butyl-4-[3-[[[6-methyl-4′-(trifluorometh-oxy)[1,1′-biphenyl]-2-yl]carbonyl]amino]-phenoxy]-1-piperidinecarboxamide]
9 | 382 nM | Cc1cccc(C(=O)Nc2cccc(OC3CCN(Cc4ccc(N(C)C)cc4)CC3)c2)c1-c1ccc(OC(F)(F)F)cc1 [Example 84, N-[3-[[1-[[4-(dimethylamino)phenyl]-methyl]-4-piperidinyl]oxy]phenyl]-6-methyl-4′-(trifluoromethoxy)[1,1′-biphenyl]-2-carboxamide]
10 | 65.2 nM | Cc1cccc(C(=O)Nc2cccc(OC3CCN(C(=O)Nc4cccc(C#N)c4)CC3)c2)c1-c1ccc(OC(F)(F)F)cc1 [Example 37, N-(3-cyanophenyl)-4-[3-[[[6-methyl-4′-(trifluoromethoxy)[1,1′-biphenyl]-2-yl]-carbonyl]amino]phenoxy]-1-piperidine-carboxamide]
11 | 261 nM | COc1cccc(NC(=O)N2CCC(Oc3cccc(NC(=O)c4cccc(C)c4-c4ccc(OC(F)(F)F)cc4)c3)CC2)c1 [Example 23, N-(3-methoxyphenyl)-4-[3-[[[6-methyl-4′-(trifluoromethoxy)[1,1′-biphenyl]-2-yl]-carbonyl]amino]phenoxy]-1-piperidine-carboxamide]
12 | 202 nM | O=C(Nc1cccc(OC2CCN(C(=O)c3cccnc3)CC2)c1)c1ccccc1-c1ccc(OC(F)(F)F)cc1 [Example 118, N-[3-[[1-(3-pyridinylcarbonyl)-4-piperidin-yl]oxy]phenyl]-4′-(trifluoromethoxy)[1,1′-biphenyl]-2-carboxamide]
13 | 186 nM | Cc1cccc(C(=O)Nc2cccc(OC3CCN(Cc4cccs4)CC3)c2)c1-c1ccc(OC(F)(F)F)cc1 [Example 59, [1,1′-biphenyl]-6-methyl-N-[3-[[1-(2-thienylmethyl)-4-piperidinyl]oxy]phenyl]-4′-(trifluoromethoxy)-2-carboxamide]
14 | 82.5 nM | CCOC(=O)N1CCC(Oc2cccc(NC(=O)c3ccccc3-c3ccc(C(F)(F)F)cc3)c2)CC1 [Example 77, ethyl 4-[3-[[[4′-(trifluoromethyl)[1,1′-biphenyl]-2-yl]carbonyl]amino]phenoxy]-1-piperidinecarboxylate]
15 | 136 nM | Cc1cccc(C(=O)Nc2cccc(OC3CCN(C(=O)CC(C)C)CC3)c2)c1-c1ccc(OC(F)(F)F)cc1 [Example 129, 6-methyl-N-[3-[[1-(3-methyl-1-oxobutyl)-4-piperidinyl]oxy]phenyl]-4′-(trifluorometh-oxy)[1,1′-biphenyl]-2-carboxamide]
16 | 661 nM | O=C(Nc1cccc(OC2CCN(C(=O)c3ccccc3)CC2)c1)c1ccccc1-c1ccc(OC(F)(F)F)cc1 [Example 119, N-[3-[(1-benzoyl-4-piperidinyl)oxy]phenyl]-4′-(trifluoromethoxy)[1,1′-biphenyl]-2-carboxamide]
17 | 290 nM | Cc1cccc(C(=O)Nc2cccc(OC3CCN(S(=O)(=O)c4cccnc4Cl)CC3)c2)c1-c1ccc(OC(F)(F)F)cc1 [Example 19, N-[3-[[1-[(2-chloro-3-pyridinyl)sulfonyl]-4-piperidinyl]oxy]phenyl]-6-methyl-4′-(trifluoromethoxy)[1,1′-biphenyl]-2-carboxamide]
18 | 234 nM | CC(C)(C)OC(=O)N1CCC(Oc2cccc(NC(=O)c3ccccc3-c3ccc(OC(F)(F)F)cc3)c2)CC1 [Example 67, 1,1-dimethylethyl 4-[3-[[[4′-(trifluorometh-oxy)[1,1′-biphenyl]-2-yl]carbonyl]amino]-phenoxy]-1-piperidinecarboxylate]
19 | 422 nM | COc1cc(NC(=O)N2CCC(Oc3cccc(NC(=O)c4cccc(C)c4-c4ccc(OC(F)(F)F)cc4)c3)CC2)cc(OC)c1OC [Example 38, 4-[3-[[[6-methyl-4′-(trifluoromethoxy)[1,1′-biphenyl]-2-yl]carbonyl]amino]phenoxy]-N-(3,4,5-trimethoxyphenyl)-1-piperidine-carboxamide]
